In ChEMBL document CHEMBL1201862, “PubChem BioAssay data set” (2004):
Calls of active or inactive are those of the source.

Assays:
Protein RecA = target: T1, Protein RecA (Mycobacterium tuberculosis, UniProt P9WHJ3); test: Fluorescence Cell-Free Homogeneous Dose Retest to Identify Inhibitors of RecA-Intein Splicing Activity. [Related pubchem assays (depositor defined):AID2097, AID2223, AID489010, AID492950]; type: functional
T1 sequence (P9WHJ3 whole entry): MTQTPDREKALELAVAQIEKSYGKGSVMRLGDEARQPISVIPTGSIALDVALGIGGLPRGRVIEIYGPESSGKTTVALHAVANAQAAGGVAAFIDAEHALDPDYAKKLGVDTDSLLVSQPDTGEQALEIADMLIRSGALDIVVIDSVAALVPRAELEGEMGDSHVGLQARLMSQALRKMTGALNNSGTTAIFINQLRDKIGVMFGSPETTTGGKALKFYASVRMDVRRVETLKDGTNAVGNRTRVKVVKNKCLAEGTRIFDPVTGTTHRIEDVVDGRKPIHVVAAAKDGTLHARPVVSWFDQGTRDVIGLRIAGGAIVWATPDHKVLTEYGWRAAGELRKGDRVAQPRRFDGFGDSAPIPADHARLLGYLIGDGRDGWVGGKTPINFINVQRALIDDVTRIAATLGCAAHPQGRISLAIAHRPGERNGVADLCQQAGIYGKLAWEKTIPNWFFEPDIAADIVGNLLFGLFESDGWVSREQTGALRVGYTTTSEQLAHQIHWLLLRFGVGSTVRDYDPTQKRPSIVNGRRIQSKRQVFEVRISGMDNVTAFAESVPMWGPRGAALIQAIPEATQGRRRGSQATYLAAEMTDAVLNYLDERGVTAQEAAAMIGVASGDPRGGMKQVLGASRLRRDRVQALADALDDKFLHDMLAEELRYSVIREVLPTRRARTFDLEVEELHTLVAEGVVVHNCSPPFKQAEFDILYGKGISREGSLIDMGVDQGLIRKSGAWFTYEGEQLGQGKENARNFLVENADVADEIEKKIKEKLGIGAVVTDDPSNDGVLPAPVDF

Vero [1] = test: host cell cytotoxicity of antiviral hits, dose response, cytotoxicity control for West Nile virus antiviral project, secondary assay (AID 1650); type: functional; conditions: Chlorocebus sabaeus
[2] = target: T2, Replicative DNA helicase DnaB (Mycobacterium tuberculosis, UniProt P9WMR3); test: DnaB intein splicing inhibitors, dose response, biochemical, cell-free fluorescence (AID 449749); type: functional
T2 sequence (P9WMR3 whole entry): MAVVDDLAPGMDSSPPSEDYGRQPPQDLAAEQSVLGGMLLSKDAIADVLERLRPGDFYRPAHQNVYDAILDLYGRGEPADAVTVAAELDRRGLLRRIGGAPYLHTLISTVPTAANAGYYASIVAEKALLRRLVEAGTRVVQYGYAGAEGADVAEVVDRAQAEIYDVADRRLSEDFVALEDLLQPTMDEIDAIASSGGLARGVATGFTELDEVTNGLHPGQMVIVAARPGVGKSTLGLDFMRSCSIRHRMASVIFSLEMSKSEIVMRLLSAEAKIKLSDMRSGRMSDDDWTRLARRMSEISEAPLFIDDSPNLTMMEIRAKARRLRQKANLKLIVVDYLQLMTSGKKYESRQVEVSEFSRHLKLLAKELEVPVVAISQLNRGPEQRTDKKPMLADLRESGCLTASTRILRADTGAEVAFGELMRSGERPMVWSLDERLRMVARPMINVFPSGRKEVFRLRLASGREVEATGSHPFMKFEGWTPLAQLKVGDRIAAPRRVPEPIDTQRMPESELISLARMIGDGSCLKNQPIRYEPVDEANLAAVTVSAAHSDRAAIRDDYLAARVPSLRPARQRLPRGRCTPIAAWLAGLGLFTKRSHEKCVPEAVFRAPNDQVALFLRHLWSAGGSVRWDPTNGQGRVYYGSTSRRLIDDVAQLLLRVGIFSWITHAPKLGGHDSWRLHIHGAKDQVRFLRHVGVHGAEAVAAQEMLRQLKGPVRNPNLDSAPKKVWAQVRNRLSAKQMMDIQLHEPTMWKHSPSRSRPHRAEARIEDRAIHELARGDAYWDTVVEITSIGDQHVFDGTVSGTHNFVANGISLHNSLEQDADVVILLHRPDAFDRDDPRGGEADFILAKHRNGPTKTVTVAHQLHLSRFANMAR

[3] = target: T3, RNA-editing ligase 1, mitochondrial (Trypanosoma brucei brucei, UniProt P86926); test: TbREL1 ligase inhibitors, dose response, biochemical, fluorescence, Trypanosoma brucei (AID 1117295); type: functional
T3 sequence (P86926 whole entry): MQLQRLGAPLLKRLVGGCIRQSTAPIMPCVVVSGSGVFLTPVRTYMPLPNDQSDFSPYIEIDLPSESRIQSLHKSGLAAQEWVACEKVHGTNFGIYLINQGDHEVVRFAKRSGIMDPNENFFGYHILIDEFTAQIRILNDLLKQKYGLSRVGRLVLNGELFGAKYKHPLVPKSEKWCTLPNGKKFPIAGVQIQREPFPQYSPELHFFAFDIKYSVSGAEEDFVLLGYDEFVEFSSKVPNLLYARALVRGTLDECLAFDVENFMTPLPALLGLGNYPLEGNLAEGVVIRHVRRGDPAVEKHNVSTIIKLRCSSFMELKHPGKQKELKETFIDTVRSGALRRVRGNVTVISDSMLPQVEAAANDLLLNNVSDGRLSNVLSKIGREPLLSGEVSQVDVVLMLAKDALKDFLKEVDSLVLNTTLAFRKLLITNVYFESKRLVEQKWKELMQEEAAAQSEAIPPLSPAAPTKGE

[4] = inhibitors of Vif binding to APOBEC3G peptide, primary screen, biochemical, TR-FRET, GST-Vif 1-94, biotin-A3G peptide, dose response retest (AID 1117319); type: functional;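 also: TR-FRET signal of purified GST-Vif binding a biotinylated A3G peptide; inhibitors lower the FRET signal by blocking Vif and A3G binding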
[5] = target: Protein-tyrosine kinase 2-beta (Homo sapiens, UniProt Q14289);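 also: potency of inhibitors of PYK2 kinase phosphorylation of poly-GT substrate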
Protein-tyrosine kinase 2-beta, sequence (Q14289 whole entry): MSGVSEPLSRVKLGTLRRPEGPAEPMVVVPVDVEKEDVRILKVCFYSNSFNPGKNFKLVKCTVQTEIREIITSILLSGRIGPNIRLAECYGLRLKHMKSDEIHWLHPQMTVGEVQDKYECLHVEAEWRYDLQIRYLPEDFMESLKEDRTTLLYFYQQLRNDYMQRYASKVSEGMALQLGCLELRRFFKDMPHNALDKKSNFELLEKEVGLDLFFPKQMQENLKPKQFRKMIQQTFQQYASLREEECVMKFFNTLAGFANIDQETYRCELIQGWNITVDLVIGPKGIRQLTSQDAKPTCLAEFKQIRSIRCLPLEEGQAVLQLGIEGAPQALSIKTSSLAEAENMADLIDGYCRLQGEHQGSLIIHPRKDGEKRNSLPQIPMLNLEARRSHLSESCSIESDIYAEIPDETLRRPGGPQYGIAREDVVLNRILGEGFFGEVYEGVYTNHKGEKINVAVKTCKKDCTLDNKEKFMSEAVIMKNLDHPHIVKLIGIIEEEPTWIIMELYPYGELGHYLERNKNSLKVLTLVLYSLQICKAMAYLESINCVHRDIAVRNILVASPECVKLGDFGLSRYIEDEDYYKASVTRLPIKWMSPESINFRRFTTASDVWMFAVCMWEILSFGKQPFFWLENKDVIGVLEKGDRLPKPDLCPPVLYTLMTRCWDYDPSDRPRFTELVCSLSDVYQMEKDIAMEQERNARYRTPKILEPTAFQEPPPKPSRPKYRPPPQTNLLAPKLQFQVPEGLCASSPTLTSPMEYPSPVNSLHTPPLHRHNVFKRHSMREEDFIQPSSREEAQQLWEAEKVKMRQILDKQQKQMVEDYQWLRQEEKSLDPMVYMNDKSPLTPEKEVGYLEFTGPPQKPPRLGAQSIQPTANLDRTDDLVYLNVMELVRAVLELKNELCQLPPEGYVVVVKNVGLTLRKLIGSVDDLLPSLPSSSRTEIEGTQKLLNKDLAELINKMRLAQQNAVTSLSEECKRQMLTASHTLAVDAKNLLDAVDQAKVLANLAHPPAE

Cytochrome P450 1A2 = target: T4, Cytochrome P450 1A2 (Homo sapiens, UniProt P05177);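 also: PubChem cytochrome P450 panel assay, CYP1A2 panel member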
T4 sequence (P05177 whole entry): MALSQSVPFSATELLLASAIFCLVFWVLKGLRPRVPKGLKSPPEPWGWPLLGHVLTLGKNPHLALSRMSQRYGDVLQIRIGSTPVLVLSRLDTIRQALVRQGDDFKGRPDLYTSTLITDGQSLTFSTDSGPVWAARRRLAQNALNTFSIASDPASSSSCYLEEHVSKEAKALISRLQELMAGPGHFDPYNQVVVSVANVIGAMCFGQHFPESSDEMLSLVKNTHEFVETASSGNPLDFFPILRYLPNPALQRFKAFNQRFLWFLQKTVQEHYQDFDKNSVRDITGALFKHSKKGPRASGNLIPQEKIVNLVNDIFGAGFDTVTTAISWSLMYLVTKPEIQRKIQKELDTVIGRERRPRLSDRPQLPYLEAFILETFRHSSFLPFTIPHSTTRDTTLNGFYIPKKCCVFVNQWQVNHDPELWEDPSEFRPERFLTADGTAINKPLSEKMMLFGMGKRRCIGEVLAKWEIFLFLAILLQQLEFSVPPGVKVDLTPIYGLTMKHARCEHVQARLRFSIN

Cytochrome P450 3A4 = Cytochrome P450 3A4 (Homo sapiens, UniProt P08684);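 also: CYP3A4 tested as one member of a cytochrome P450 panel screen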
Cytochrome P450 3A4, sequence (P08684 whole entry): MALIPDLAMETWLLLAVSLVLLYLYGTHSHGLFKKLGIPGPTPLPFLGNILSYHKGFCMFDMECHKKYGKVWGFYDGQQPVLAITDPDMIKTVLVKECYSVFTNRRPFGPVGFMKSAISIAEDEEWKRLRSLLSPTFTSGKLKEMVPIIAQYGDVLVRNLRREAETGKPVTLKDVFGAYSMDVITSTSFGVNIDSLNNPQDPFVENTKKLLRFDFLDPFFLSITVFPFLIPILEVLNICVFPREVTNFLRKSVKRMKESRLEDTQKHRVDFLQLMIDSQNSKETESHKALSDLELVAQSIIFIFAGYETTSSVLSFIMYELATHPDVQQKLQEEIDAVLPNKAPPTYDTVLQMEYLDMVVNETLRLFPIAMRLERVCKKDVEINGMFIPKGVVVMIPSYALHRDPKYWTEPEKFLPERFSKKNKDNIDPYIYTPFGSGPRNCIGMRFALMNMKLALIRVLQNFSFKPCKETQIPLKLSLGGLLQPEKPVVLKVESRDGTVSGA

Cytochrome P450 2C19 = Cytochrome P450 2C19 (Homo sapiens, UniProt P33261); test: Cytochrome panel assay with activity outcomes. Panel member name: p450-cyp2c19 Compounds with AC50 equal or less than 10 uM are considered active; type: functional; conditions: read-out: AC50
Cytochrome P450 2C19, sequence (P33261 whole entry): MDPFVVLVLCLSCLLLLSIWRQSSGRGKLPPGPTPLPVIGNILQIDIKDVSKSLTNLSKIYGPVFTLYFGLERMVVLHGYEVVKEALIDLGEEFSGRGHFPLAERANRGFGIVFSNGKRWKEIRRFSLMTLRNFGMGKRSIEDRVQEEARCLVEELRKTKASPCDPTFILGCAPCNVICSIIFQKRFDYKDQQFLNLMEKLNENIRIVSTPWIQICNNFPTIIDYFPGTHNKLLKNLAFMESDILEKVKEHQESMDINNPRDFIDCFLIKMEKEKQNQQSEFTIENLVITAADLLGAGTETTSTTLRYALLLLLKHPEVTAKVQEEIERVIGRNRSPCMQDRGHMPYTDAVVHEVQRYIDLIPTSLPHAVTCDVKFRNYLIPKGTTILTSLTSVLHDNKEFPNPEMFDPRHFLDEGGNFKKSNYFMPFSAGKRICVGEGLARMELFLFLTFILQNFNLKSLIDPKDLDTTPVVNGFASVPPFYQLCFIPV

[6] = Luminescence Cell-Based Dose Retest to Confirm Inhibitors of Cancer Stem Cells. [Related pubchem assays (depositor defined):AID2717, AID2721]; type: functional; conditions: Homo sapiens
[7] = non-specific cell cytotoxicity, dose response, cytotoxicity control for PAX8 inhibitor project, plate reader, dry powder samples (AID 743021); type: functional, cell-based
BJ [8] = test: cells; type: functional, cell-based; conditions: Homo sapiens
Paired box protein Pax-8 = Paired box protein Pax-8 (Homo sapiens, UniProt Q06710); test: inhibitors of PAX8-driven TPO luciferase reporter, dose response, RMG-I cells, cherry-pick (AID 687027); type: functional, cell-based;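 also: luciferase reporter driven by Pax8 target thyroperoxidase promoter measured by SteadyGlo luminescence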
Paired box protein Pax-8, sequence (Q06710 whole entry): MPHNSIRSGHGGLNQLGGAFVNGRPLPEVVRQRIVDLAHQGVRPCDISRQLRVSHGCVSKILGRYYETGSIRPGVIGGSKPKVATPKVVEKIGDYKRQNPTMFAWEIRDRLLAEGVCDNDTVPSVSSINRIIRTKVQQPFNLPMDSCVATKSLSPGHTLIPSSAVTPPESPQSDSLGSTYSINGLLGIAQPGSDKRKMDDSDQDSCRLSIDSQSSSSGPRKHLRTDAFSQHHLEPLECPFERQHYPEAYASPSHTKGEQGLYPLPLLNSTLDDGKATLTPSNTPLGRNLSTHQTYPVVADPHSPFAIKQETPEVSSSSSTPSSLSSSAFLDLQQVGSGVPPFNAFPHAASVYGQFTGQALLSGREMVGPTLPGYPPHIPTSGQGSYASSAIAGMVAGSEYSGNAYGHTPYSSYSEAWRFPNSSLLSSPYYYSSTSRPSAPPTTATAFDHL

BJ [9] = test: cytotoxicity toward BJ-TERT-LT-ST fibroblasts, dose response, cell-based, RAS-independent, luminescence (AID 1935); type: functional; conditions: Homo sapiens;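 also: BJ fibroblasts immortalized with TERT plus LT and ST oncogenes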
[10] = Luminescence-based counterscreen assay for KLF5 inhibitors: dose response cell-based high throughput screening assay to identify cytotoxic compounds using the IEC-6 intestinal epithelial cell line. [Related pubchem assays: 1700 (Primary screen.), 1834 (Confirmation screen.), 1858 (Summary AID.), 1905 (Counterscreen.)]; type: functional
[11] = cytotoxicity in HEK-293T cells, dose response, cytotoxicity control for TCR NF-kB inhibitor project, luminescence, T-cell screen hits (AID 489026); type: functional, cell-based;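 also: cells exposed to compound about 14 hours before the viability readout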
BJ [12] = test: cytotoxicity toward BJ-TERT fibroblasts, dose response, cell-based, RAS-independent, luminescence (AID 1933); type: functional; conditions: Homo sapiens
[13] = cytotoxicity toward DRD oncogenic fibroblasts, dose response, cell-based, non-viral oncogenic, luminescence (AID 1934); type: functional; conditions: Homo sapiens
Vero [14] = test: cells; type: functional; conditions: Chlorocebus sabaeus
BJ [15] = test: cytotoxicity toward Ras-transformed BJeLR fibroblasts, dose response, cell-based, alamar blue fluorescence, cherrypicked samples (AID 2631); type: functional; conditions: Homo sapiens;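 also: confirmatory dose-response assay in RAS-dependent BJ fibroblasts engineered with TERT, LT and ST, with cytotoxicity read by fluorescence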
Caspase-6 = target: T5, Caspase-6 (Homo sapiens, UniProt P55212); test: human caspase-6 inhibitors, dose response, biochemical, VEID-R110 fluorescence, cherry-pick (AID 720632)
T5 sequence (P55212 whole entry): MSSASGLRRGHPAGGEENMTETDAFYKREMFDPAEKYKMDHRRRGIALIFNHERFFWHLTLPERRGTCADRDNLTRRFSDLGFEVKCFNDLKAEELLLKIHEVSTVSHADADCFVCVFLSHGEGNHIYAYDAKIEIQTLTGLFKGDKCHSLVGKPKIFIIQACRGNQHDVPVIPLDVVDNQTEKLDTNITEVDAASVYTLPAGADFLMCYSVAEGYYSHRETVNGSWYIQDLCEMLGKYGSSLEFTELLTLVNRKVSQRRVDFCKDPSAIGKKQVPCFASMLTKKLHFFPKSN

Caspase-7 = target: T6, Caspase-7 (Homo sapiens, UniProt P55210); test: human caspase-7 inhibitors, dose response, selectivity assay for caspase-6 inhibitor project, biochemical, DEVD-R110 fluorescence, cherry-pick (AID 743295)
T6 sequence (P55210 whole entry): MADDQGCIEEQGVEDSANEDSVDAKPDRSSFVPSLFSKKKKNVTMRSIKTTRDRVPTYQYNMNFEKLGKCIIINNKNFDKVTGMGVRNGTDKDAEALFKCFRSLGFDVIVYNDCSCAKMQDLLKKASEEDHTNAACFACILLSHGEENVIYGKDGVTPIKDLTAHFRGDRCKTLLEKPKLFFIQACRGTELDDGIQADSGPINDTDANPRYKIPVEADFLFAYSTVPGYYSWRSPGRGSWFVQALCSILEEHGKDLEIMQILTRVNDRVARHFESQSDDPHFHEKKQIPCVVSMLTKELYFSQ

Caspase-9 = target: T7, Caspase-9 (Homo sapiens, UniProt P55211); test: caspase-9 enzyme inhibition, dose response, selectivity assay for caspase-6 inhibitor project, biochemical, fluorescence, plate reader, cherry-picked samples (AID 743293)
T7 sequence (P55211 whole entry): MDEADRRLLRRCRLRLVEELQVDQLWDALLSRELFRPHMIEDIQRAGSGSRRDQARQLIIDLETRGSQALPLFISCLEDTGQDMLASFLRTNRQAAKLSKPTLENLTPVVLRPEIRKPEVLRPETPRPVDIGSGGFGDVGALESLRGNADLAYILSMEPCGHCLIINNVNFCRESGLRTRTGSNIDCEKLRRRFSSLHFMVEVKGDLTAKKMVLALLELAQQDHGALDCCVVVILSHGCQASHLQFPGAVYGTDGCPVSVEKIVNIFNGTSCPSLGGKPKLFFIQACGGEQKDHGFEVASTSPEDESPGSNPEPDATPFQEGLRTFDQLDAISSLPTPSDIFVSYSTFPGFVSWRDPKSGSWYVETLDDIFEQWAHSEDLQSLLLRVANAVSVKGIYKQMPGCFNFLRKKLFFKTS

Large T antigen = Large T antigen (Simian virus 40, UniProt P03070); type: functional, Betapolyomavirus macacae;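 also: Confirmatory-stage PubChem screen for compounds that inhibit SV40 T antigen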
Large T antigen, sequence (P03070 whole entry): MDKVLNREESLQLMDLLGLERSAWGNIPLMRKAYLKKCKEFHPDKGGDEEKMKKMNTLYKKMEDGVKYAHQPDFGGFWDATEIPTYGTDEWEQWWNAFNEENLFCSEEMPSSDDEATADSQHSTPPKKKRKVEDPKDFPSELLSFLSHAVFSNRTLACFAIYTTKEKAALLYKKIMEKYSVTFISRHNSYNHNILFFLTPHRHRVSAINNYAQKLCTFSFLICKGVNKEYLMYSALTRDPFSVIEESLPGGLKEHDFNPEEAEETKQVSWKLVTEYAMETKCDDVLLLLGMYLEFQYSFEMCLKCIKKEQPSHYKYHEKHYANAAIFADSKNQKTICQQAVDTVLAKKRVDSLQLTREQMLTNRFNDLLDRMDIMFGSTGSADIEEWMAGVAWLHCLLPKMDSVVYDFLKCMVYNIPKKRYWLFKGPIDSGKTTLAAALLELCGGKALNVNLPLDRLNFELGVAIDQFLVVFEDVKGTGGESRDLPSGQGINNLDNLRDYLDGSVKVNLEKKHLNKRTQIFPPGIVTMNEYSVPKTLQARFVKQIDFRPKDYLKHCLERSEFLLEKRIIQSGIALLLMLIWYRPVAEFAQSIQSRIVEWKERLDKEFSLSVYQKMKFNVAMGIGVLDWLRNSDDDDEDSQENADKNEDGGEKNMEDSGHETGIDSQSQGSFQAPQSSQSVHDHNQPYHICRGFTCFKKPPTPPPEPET

[16] = target: Glucose-6-phosphate 1-dehydrogenase (Homo sapiens, UniProt P11413); test: human G6PD enzyme inhibitors, dose response, selectivity assay for P. falciparum G6PD inhibitor project, biochemical, fluorescence (AID 504792); type: functional
Glucose-6-phosphate 1-dehydrogenase, sequence (P11413 whole entry): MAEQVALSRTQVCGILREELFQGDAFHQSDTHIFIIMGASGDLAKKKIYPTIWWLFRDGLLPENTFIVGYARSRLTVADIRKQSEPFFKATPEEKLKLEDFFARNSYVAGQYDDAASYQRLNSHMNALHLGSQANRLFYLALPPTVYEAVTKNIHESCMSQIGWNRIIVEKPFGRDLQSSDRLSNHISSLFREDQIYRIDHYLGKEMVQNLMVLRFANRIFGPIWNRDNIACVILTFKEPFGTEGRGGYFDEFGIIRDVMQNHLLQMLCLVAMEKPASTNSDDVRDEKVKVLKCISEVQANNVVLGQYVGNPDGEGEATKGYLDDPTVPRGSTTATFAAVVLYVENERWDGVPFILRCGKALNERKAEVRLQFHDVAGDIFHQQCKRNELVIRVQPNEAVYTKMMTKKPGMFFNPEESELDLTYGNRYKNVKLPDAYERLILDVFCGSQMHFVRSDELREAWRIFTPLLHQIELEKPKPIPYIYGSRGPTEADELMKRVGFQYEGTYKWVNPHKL

Which EC50 (Protein RecA) does the source give for `C[C@@H]1CC=C[C@H]2[C@H]1C(=O)N(Cc1ccccc1)[C@H]2c1ccc(F)c(Br)c1` here?
Its EC50 is 23 µM (active).

What about the CC50 (Vero [1]) of the same molecule?
The CC50 was 24.1 µM (active).

What about the AC50 [2] of the same molecule?
Its AC50 is 5.04 µM (active).

With `CCC(=O)c1ccccc1OCCCN1CCC(Cc2ccccc2)CC1` as the molecule, how does the IC50 [3] read?
Its IC50 is > 96.6 µM (inactive).

With `O=C(CSc1nnc(-c2cccnc2)n1Cc1ccco1)c1ccc(Br)cc1` as the molecule, how does the IC50 [4] read?
The IC50 was > 100 µM (active).

For `CC(C)(C)C(=O)NC(=C(Cl)Cl)P(=O)(O)O`, which IC50 [5] is on record?
The IC50 was 9.26 µM (active).

And the AC50 (Cytochrome P450 1A2)?
The AC50 was 0.1 µM (inconclusive).

Which results are given for `COC(=O)C(Cc1c[nH]c2ccccc12)NC(=O)C(C)C` (stereo unspecified)?
IC50 [4]: > 100 µM (active); AC50 (Cytochrome P450 3A4): 31.6 µM (inconclusive); AC50 (Cytochrome P450 2C19): 22.4 µM (inconclusive)

Which results are given for `COc1ccc2nc(C)cc(SCC(=O)N/N=C/c3cccc4ccccc34)c2c1`?
AC50 [6]: 1.11 µM (active); IC50 [5]: 2.57 µM (active)

What does the source list for `C[C@]12CCC3C(CCC4=CC(O)CC[C@@]43/C=N/O)C1(O)CCC2C1=CC(=O)OC1` (stereo partly specified)?
AC50 [7]: 50.2 µM (active); EC50 (BJ [8]): 2.56 µM (active); AC50 (Paired box protein Pax-8): 2.22 µM (active); EC50 (BJ [9]): 2.36 µM (inconclusive); CC50 (Vero [1]): 0.79 µM (active); IC50 [10]: > 39.8 µM (not active); IC50 [11]: > 80 µM (inactive); EC50 (BJ [12]): 1.9 µM (active); EC50 [13]: 2.33 µM (active); CC50 (Vero [14]): 1.34 µM (active); EC50 (BJ [15]): 0.391 µM (active)

Which results are given for `Nc1c(O)cccc1C(=O)O`?
EC50 (Protein RecA): 5.43 µM (active); AC50 (Caspase-6): 1.59 µM (active); AC50 (Caspase-7): 6.14 µM (active); AC50 (Caspase-9): > 70 µM (inactive); AC50 [2]: > 380 µM (inactive); IC50 (Large T antigen): 20.1 µM (active); IC50 [16]: 24 µM (inactive)

With `O=C1CCCCC1Oc1ccc2ccc(=O)oc2c1` (stereo unspecified) as the molecule, how does the IC50 [4] read?
The IC50 was > 100 µM (active).
